For eight compounds, melting point results are on record in patent US7468368B2, “Piperazinylacylpiperidine derivatives, their preparation and therapeutic use thereof” (Sanofi Aventis, priority 2002, dated 2008).

A word on the melting point: it is the temperature, or range, at which the solid turns liquid.

Structures can show the parent of a compound that is named as a salt.

For the compound `O=C(CN1CCN(c2ccncn2)CC1)N1CC=C(c2cccc(C(F)(F)F)c2)CC1` (as salt: oxalate) [Compound No. 27, 2-[4-(4-Pyrimidinyl)-1-piperazinyl]-1-[4-[3-(trifluoromethyl)phenyl]-3,6-dihydro-1(2H)-pyridyl]-1-ethanone dioxalate], the melting point came out at 160 °C.

`CN(C)CC1(c2cccc(C(F)(F)F)c2)CCN(C(=O)CN2CCN(c3cnccn3)CC2)CC1` [Compound No. 33, 1-[4-[(Dimethylamino)methyl]-4-[3-(trifluoromethyl)phenyl]-1-piperidyl]-2-[4-(2-pyrazinyl)-1-piperazinyl]-1-ethanone] returned a melting point of 118 °C.

`NCC1(c2cccc(Cl)c2)CCN(C(=O)CN2CCN(c3cnccn3)CC2)CC1` [Compound No. 65, 1-[4-(Aminomethyl)-4-(3-chlorophenyl)-1-piperidyl]-2-[4-(2-pyrazinyl)-1-piperazinyl]-1-ethanone] registered a melting point of 138 to 139 °C.

`NCC1(c2cccc(C(F)(F)F)c2)CCN(C(=O)CN2CCN(c3cnccn3)CC2)CC1` [Compound No. 4, 1-[4-(Aminomethyl)-4-[3-(trifluoromethyl)phenyl]-1-piperidyl]-2-[4-(2-pyrazinyl)-1-piperazinyl]-1-ethanone] displayed a melting point of 152 to 153 °C.

`CC(C)N(C)CC1(c2cccc(C(F)(F)F)c2)CCN(C(=O)CN2CCN(c3cnccn3)CC2)CC1.Cl.Cl.Cl` gave a melting point of 185 to 200 °C.

With `O=C(CN1CCN(c2cnccn2)CC1)N1CCC(CO)(c2cccc(C(F)(F)F)c2)CC1` [Compound No. 32, 1-[4-(Hydroxymethyl)-4-[3-(trifluoromethyl)phenyl]-1-piperidyl]-2-[4-(2-pyrazinyl)-1-piperazinyl]-1-ethanone], the melting point is 223 °C.

For the compound `COc1cccc(C2(CN)CCN(C(=O)CN3CCN(c4cnccn4)CC3)CC2)c1.O=C(O)C(=O)O.O=C(O)C(=O)O`, the melting point is 120 °C.

On to `CNCC1(c2cccc(C(F)(F)F)c2)CCN(C(=O)CN2CCN(c3cnccn3)CC2)CC1` [Compound No. 57, 1-[4-[(Methylamino)methyl]-4-[3-(trifluoromethyl)phenyl]-1-piperidyl]-2-[4-(2-pyrazinyl)-1-piperazinyl]-1-ethanone], for which the melting point is 137 to 139 °C.
